# Values of other authors in US4713385A, “Alkoxy and dialkoxyalkyl esters of dihydrolysergic acid and related compounds useful as 5HT receptor antagonists” (Eli Lilly and Company, priority 1985, dated 1987).
# Experiments:
# [1] = system: 5HT2 receptors; conditions: effect mediated by 5HT2 receptors; in words
# [2] = system: 5HT2 receptors; conditions: Garbrecht compounds; in words
# [3] = molecular target: vascular histaminergic receptors
# [4] = molecular target: vascular alpha adrenergic receptors
# [5] = molecular target: vascular dopaminergic receptors
structure (smiles),measurement,setting,value
"CC(O)C(C)OC(=O)[C@@H]1C[C@@H]2c3cccc4c3c(cn4C(C)C)C[C@H]2N(C)C1 (stereo partly drawn) [LY53857, 1-isopropyl-6-methyl-8β-(1-methyl-2-hydroxy)propoxycarbonyl-5R-ergoline]",antagonism of vascular contraction to serotonin,[1],potent antagonist of vascular contraction to serotonin
same,peripheral serotonin antagonist activity against 5HT2 receptors,[2],most active peripheral serotonin antagonist
same,Kd,"[3]; Cohen et al. J.P.E.T., 227, 327 (1983), read-out: Kdissoc (vascular histaminergic receptors)",~10 µM
same,affinity for vascular histaminergic receptors,[3]; in words,minimal affinity
same,Kd,"[4]; Cohen et al. J.P.E.T., 227, 327 (1983), read-out: Kdissoc (vascular alpha adrenergic receptors)",~10 µM
same,affinity for vascular alpha adrenergic receptors,[4]; in words,minimal affinity
same,Kd,"[5]; Cohen et al. J.P.E.T., 227, 327 (1983), read-out: Kdissoc (vascular dopaminergic receptors)",~10 µM
same,affinity for vascular dopaminergic receptors,[5]; in words,minimal affinity
